The structures appear in SMILES notation.

What is called EC50 is the concentration at which the effect is half-maximal. As usually defined, the Ki is the dissociation constant of the complex between target and ligand, obtained from inhibition or displacement. The low end stands for tighter binding, the high end for weaker binding. As a reminder, the fraction unbound is free concentration divided by total concentration. A higher fraction unbound goes with weak binding.

For one series, the target named is T1, Metabotropic glutamate receptor 5 (Homo sapiens, UniProt P41594). The experiment in a line: Agonist activity at human mGluR5A transfected in HEK293 cells assessed as induction of calcium release by FLIPR assay.
T1 sequence (P41594 whole entry): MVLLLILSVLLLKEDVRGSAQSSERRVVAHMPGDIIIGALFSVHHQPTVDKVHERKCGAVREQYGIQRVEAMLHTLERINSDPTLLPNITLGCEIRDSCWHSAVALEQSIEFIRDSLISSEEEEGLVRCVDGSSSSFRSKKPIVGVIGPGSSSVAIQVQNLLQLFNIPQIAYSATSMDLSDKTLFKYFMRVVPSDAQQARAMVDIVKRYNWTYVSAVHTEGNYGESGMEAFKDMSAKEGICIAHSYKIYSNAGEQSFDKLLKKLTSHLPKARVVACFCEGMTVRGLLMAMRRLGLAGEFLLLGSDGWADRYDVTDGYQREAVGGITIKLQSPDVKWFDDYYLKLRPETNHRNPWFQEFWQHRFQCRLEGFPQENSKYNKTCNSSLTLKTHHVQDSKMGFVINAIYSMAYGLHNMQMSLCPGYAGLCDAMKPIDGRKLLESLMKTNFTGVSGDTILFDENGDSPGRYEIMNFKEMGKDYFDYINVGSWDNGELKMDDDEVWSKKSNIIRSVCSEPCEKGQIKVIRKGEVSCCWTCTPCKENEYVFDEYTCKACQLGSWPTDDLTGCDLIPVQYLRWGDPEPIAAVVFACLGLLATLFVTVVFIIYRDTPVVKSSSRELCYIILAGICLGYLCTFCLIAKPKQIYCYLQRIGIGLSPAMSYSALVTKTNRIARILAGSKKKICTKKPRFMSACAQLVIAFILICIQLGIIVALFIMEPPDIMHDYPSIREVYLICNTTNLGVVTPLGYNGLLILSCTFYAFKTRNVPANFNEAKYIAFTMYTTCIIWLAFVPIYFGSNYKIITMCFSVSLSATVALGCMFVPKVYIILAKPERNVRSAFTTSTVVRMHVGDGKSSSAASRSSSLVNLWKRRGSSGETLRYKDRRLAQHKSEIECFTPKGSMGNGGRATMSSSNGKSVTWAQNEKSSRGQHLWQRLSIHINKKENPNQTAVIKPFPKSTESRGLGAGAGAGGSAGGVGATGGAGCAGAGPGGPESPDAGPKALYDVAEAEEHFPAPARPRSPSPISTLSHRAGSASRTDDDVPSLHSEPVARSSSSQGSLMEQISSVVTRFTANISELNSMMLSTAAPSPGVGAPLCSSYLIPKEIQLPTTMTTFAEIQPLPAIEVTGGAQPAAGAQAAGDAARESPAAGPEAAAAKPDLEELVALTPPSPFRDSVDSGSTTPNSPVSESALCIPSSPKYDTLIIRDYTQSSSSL
Details: not given
It is filed as functional, cell-based.
Take `O=C1N[C@H](c2cncc(C#Cc3ccccc3)c2)[C@@H](c2cc(F)cc(F)c2)O1`: the EC50 is more than 3000 nM.

For the compound `O=C1N[C@H](c2cncc(C#Cc3ccccc3)c2)[C@@H](c2ccc(F)cc2)O1`, the EC50 is 504 nM.

Turning to `O=C1N[C@H](c2cncc(C#Cc3cccnc3)c2)[C@@H](c2ccc(F)cc2)O1`, the EC50 is 273 nM.

For `O=C1N[C@H](c2cncc(C#Cc3ccncc3)c2)[C@@H](c2ccc(F)cc2)O1`, the half-maximal effective concentration (EC50) was more than 3000 nM.

Turning to `O=C1N[C@H](c2cncc(C#Cc3ccccn3)c2)[C@@H](c2ccc(F)cc2)O1`, the EC50 was more than 3000 nM.

For `O=C1N[C@H](c2cncc(C#Cc3ncccc3F)c2)[C@@H](c2ccc(F)cc2)O1`, the EC50 was more than 3000 nM.

A further series deals with T1, Metabotropic glutamate receptor 5. Put plainly: Positive allosteric modulation of human mGluR5A transfected in HEK293 cells assessed as potentiation of L-glutamate-induced calcium release incubated for 10 mins by FLIPR assay. It is filed as functional, cell-based.
Details: not given
As for `O=C1N[C@H](c2cncc(C#Cc3ccccc3)c2)[C@@H](c2cc(F)cc(F)c2)O1`, the EC50 is 5.5 nM.

Take `O=C1N[C@H](c2cncc(C#Cc3ccccc3)c2)[C@@H](c2ccc(F)cc2)O1`: the EC50 stood at 0.4 nM.

Consider `O=C1N[C@H](c2cncc(C#Cc3cccnc3)c2)[C@@H](c2ccc(F)cc2)O1`, for which the EC50 came out at 3.3 nM.

In the case of `O=C1N[C@H](c2cncc(C#Cc3ccncc3)c2)[C@@H](c2ccc(F)cc2)O1`, the EC50 turned out to be 14 nM.

For the compound `O=C1N[C@H](c2cncc(C#Cc3ccccn3)c2)[C@@H](c2ccc(F)cc2)O1`, the concentration giving a half-maximal response (EC50) worked out at 25 nM.

For `O=C1N[C@H](c2cncc(C#Cc3ncccc3F)c2)[C@@H](c2ccc(F)cc2)O1`, the EC50 came to 10 nM.

A further series shares this target. Put plainly: Displacement of [3H]-MPEPy from human mGluR5A transfected in HEK293 cell membranes after 60 mins by microbeta liquid scintillation counting analysis.
Details: not given
A general note: Loss of bound radioactivity is the signal in a displacement assay; it reports binding, not function.
`O=C1N[C@H](c2cncc(C#Cc3ccccc3)c2)[C@@H](c2cc(F)cc(F)c2)O1` had a Ki of 1.4 nM.

`O=C1N[C@H](c2cncc(C#Cc3ccccc3)c2)[C@@H](c2ccc(F)cc2)O1` displayed a Ki of 1.7 nM.

The compound `O=C1N[C@H](c2cncc(C#Cc3cccnc3)c2)[C@@H](c2ccc(F)cc2)O1` registered a Ki of 32 nM.

`O=C1N[C@H](c2cncc(C#Cc3ccncc3)c2)[C@@H](c2ccc(F)cc2)O1` gave a Ki of 16 nM.

In the case of `O=C1N[C@H](c2cncc(C#Cc3ccccn3)c2)[C@@H](c2ccc(F)cc2)O1`, the Ki was 23 nM.

For the compound `O=C1N[C@H](c2cncc(C#Cc3ncccc3F)c2)[C@@H](c2ccc(F)cc2)O1`, affinity was put at a Ki of 14 nM. Compared with the last compound, the Ki is about 1.6-fold lower.

Test system in another series: not listed separately
Put plainly: Fraction unbound in human serum. The format is ADME, cell-free.
Details: not given
Turning to `O=C1N[C@H](c2cncc(C#Cc3ccccc3)c2)[C@@H](c2ccc(F)cc2)O1`, the free fraction (fraction unbound) came to 0.004.

With `O=C1N[C@H](c2cncc(C#Cc3cccnc3)c2)[C@@H](c2ccc(F)cc2)O1`, the fraction unbound was 0.082.

Compound `O=C1N[C@H](c2cncc(C#Cc3ccncc3)c2)[C@@H](c2ccc(F)cc2)O1` returned a fraction unbound of 0.14.

In turn, `O=C1N[C@H](c2cncc(C#Cc3ccccn3)c2)[C@@H](c2ccc(F)cc2)O1` displayed a fraction unbound of 0.064.

Take `O=C1N[C@H](c2cncc(C#Cc3ncccc3F)c2)[C@@H](c2ccc(F)cc2)O1`: the free fraction (fraction unbound) turned out to be 0.076.

Test system in another series: not listed separately
The experiment in a line: Fraction unbound in mouse serum. The format is ADME, cell-free.
Details: not given
With `O=C1N[C@H](c2cncc(C#Cc3ccccc3)c2)[C@@H](c2ccc(F)cc2)O1`, the fraction unbound amounted to 0.009.

`O=C1N[C@H](c2cncc(C#Cc3cccnc3)c2)[C@@H](c2ccc(F)cc2)O1` yielded a fraction unbound of 0.11.

Turning to `O=C1N[C@H](c2cncc(C#Cc3ccncc3)c2)[C@@H](c2ccc(F)cc2)O1`, the fraction unbound was determined as 0.1.

The compound `O=C1N[C@H](c2cncc(C#Cc3ccccn3)c2)[C@@H](c2ccc(F)cc2)O1` had a fraction unbound of 0.069.

Turning to `O=C1N[C@H](c2cncc(C#Cc3ncccc3F)c2)[C@@H](c2ccc(F)cc2)O1`, the fraction unbound amounted to 0.13.

Test system in the next series: not listed separately
The experiment in a line: Metabolic stability in human liver microsomes assessed as compound remaining after 10 mins. It is filed as ADME, Microsome. To be noted: read-out: Stability.
For `O=C1N[C@H](c2cncc(C#Cc3ccccc3)c2)[C@@H](c2ccc(F)cc2)O1`, the remaining at 10 min amounted to 81%.

Take `O=C1N[C@H](c2cncc(C#Cc3cccnc3)c2)[C@@H](c2ccc(F)cc2)O1`: the remaining at 10 min is 76%.

On to `O=C1N[C@H](c2cncc(C#Cc3ccncc3)c2)[C@@H](c2ccc(F)cc2)O1`, for which the remaining at 10 min was found to be 70%.

In the case of `O=C1N[C@H](c2cncc(C#Cc3ccccn3)c2)[C@@H](c2ccc(F)cc2)O1`, the remaining at 10 min stood at 97%.

Take `O=C1N[C@H](c2cncc(C#Cc3ncccc3F)c2)[C@@H](c2ccc(F)cc2)O1`: the remaining at 10 min was found to be 100%.

Test system in another series: not listed separately
Put plainly: Metabolic stability in rat liver microsomes assessed as compound remaining after 10 mins. The format is ADME, Microsome. To be noted: read-out: Stability. (Liver microsomes are a subcellular fraction often used to study metabolism.)
For the compound `O=C1N[C@H](c2cncc(C#Cc3ccccc3)c2)[C@@H](c2ccc(F)cc2)O1`, the remaining at 10 min came to 92%.

With `O=C1N[C@H](c2cncc(C#Cc3cccnc3)c2)[C@@H](c2ccc(F)cc2)O1`, the remaining at 10 min stood at 85%.

`O=C1N[C@H](c2cncc(C#Cc3ccncc3)c2)[C@@H](c2ccc(F)cc2)O1`: the remaining at 10 min came out at 65%.

For the compound `O=C1N[C@H](c2cncc(C#Cc3ccccn3)c2)[C@@H](c2ccc(F)cc2)O1`, the remaining at 10 min was 100%.

As to `O=C1N[C@H](c2cncc(C#Cc3ncccc3F)c2)[C@@H](c2ccc(F)cc2)O1`, the remaining at 10 min worked out at 100%.

Test system in another series: not listed separately
Put plainly: Metabolic stability in mouse liver microsomes assessed as compound remaining after 10 mins. As to conditions: read-out: Stability. The format is ADME, Microsome.
As for `O=C1N[C@H](c2cncc(C#Cc3ccccc3)c2)[C@@H](c2ccc(F)cc2)O1`, the remaining at 10 min was 80%.

As to `O=C1N[C@H](c2cncc(C#Cc3cccnc3)c2)[C@@H](c2ccc(F)cc2)O1`, the remaining at 10 min amounted to 87%.

On to `O=C1N[C@H](c2cncc(C#Cc3ccncc3)c2)[C@@H](c2ccc(F)cc2)O1`, for which the remaining at 10 min turned out to be 69%.

Regarding `O=C1N[C@H](c2cncc(C#Cc3ccccn3)c2)[C@@H](c2ccc(F)cc2)O1`, the remaining at 10 min was determined as 89%.

On to `O=C1N[C@H](c2cncc(C#Cc3ncccc3F)c2)[C@@H](c2ccc(F)cc2)O1`, for which the remaining at 10 min was found to be 100%.

Test system in the next series: not listed separately
The experiment in a line: Toxicity in C57BL/6 mouse assessed as induction of convulsions at 1 mg/kg, ip during 3 hrs study. The format is organism-based. To be noted: in vivo.
For the compound `O=C1N[C@H](c2cncc(C#Cc3ccccc3)c2)[C@@H](c2ccc(F)cc2)O1`, the Activity entry is reported as “Toxic”.

Test system in a further series: not listed separately
Put plainly: Toxicity in C57BL/6 mouse assessed as induction of convulsions at 30 mg/kg, ip during 3 hrs study. It is filed as organism-based. To be noted: in vivo.
For `O=C1N[C@H](c2cncc(C#Cc3ncccc3F)c2)[C@@H](c2ccc(F)cc2)O1`, the Activity entry is reported as “Non-Toxic”.

A further series has as its system Mus musculus. Put plainly: Cognitive enhancing effect in sc dosed C57BL/6 mouse assessed as time spent on exploring novel objects administered 1 hr before acquisition session followed by acquisition session for 15 mins by novel object recognition test. The format is functional. As to conditions: C57BL/6, sc, read-out: MED.
With `O=C1N[C@H](c2cncc(C#Cc3ncccc3F)c2)[C@@H](c2ccc(F)cc2)O1`, the minimal effective dose turned out to be 10 mg/kg.

Test system in a further series: not listed separately
The experiment in a line: Drug uptake in C57BL/6 mouse brain at 10 mg/kg, sc measured after 60 mins. The format is ADME, organism-based. To be noted: read-out: Drug uptake.
Take `O=C1N[C@H](c2cncc(C#Cc3ncccc3F)c2)[C@@H](c2ccc(F)cc2)O1`: the concentration at 1 h came to 542 nM.

Test system in the next series: not listed separately
The experiment in a line: Drug uptake in C57BL/6 mouse plasma at 10 mg/kg, sc measured after 60 mins. It is filed as ADME, organism-based.
Details: not given
As to `O=C1N[C@H](c2cncc(C#Cc3ncccc3F)c2)[C@@H](c2ccc(F)cc2)O1`, the concentration at 1 h was 5.25 µM.

Test system in another series: not listed separately
The experiment in a line: Ratio of drug uptake in C57BL/6 mouse brain to plasma at 10 mg/kg, sc measured after 60 mins. The format is ADME, organism-based. As to conditions: read-out: BPR.
In the case of `O=C1N[C@H](c2cncc(C#Cc3ncccc3F)c2)[C@@H](c2ccc(F)cc2)O1`, the Kp at 1 h was 0.1 to 0.11.

Test system in the next series: not listed separately
Put plainly: Drug uptake in C57BL/6 mouse brain at 1 mg/kg, sc measured after 60 mins. The format is ADME, organism-based. To be noted: read-out: Drug uptake.
Regarding `O=C1N[C@H](c2cncc(C#Cc3ncccc3F)c2)[C@@H](c2ccc(F)cc2)O1`, the concentration at 1 h came out at 56 nM.

Test system in the next series: not listed separately
Put plainly: Drug uptake in C57BL/6 mouse plasma at 1 mg/kg, sc measured after 60 mins.
Details: not given
It is filed as ADME, organism-based.
`O=C1N[C@H](c2cncc(C#Cc3ncccc3F)c2)[C@@H](c2ccc(F)cc2)O1` yielded a concentration at 1 h of 375 nM.

Test system in the next series: not listed separately
Put plainly: Ratio of drug uptake in C57BL/6 mouse brain to plasma at 1 mg/kg, sc measured after 60 mins. The format is ADME, organism-based. To be noted: read-out: BPR.
Take `O=C1N[C@H](c2cncc(C#Cc3ncccc3F)c2)[C@@H](c2ccc(F)cc2)O1`: the Kp at 1 h is 0.15.

Test system in the next series: not listed separately
Put plainly: Drug uptake in C57BL/6 mouse brain at 3 mg/kg, sc measured after 60 mins. The format is ADME, organism-based. To be noted: read-out: Drug uptake.
On to `O=C1N[C@H](c2cncc(C#Cc3ncccc3F)c2)[C@@H](c2ccc(F)cc2)O1`, for which the concentration at 1 h is 182 nM.

Test system in a further series: not listed separately
Put plainly: Drug uptake in C57BL/6 mouse plasma at 3 mg/kg, sc measured after 60 mins. The format is ADME, organism-based.
Details: not given
For `O=C1N[C@H](c2cncc(C#Cc3ncccc3F)c2)[C@@H](c2ccc(F)cc2)O1`, the concentration at 1 h was found to be 1430 nM.

Test system in the next series: not listed separately
The experiment in a line: Ratio of drug uptake in C57BL/6 mouse brain to plasma at 3 mg/kg, sc measured after 60 mins. The format is ADME, organism-based. As to conditions: read-out: BPR.
With `O=C1N[C@H](c2cncc(C#Cc3ncccc3F)c2)[C@@H](c2ccc(F)cc2)O1`, the Kp at 1 h was determined as 0.14.

These data come from ChEMBL document CHEMBL4477253, “Oxazolidinone-based allosteric modulators of mGluR5: Defining molecular switches to create a pharmacological tool box” (Bioorg Med Chem Lett, 2016).
